# Read-outs that look alike come from different tables or passages of the source.
# Columns and labels:
# COX-1 [1] = target: T1, COX-1 (Homo sapiens, UniProt P23219); experiment: Human whole blood assay, COX-1 (clotting-induced TxB2 production); format: cell-based; parameters: platelets in whole blood contain a large amount of the COX-1 enzyme; endogenous in cells; host or cells: platelets in fresh human whole blood, clotting
# Source text: (§1) As well, platelets in whole blood contain a large amount of the COX-1 enzyme. Immediately following blood clotting, platelets are activated through a thrombin-mediated mechanism. This reaction results in the production of thromboxane B2 (TxB2) via activation of COX-1. Thus, the effect of test compounds on TxB2 levels following blood clotting can be examined and used as an index for COX-1 activity. Therefore, the degree of selectivity by the test compound can be determined by measuring the levels of PGE2 after LPS induction (COX-2) and TxB2 following blood clotting (COX-1) in the same assay.
# Fresh blood is collected into vacutainers containing no anticoagulants. […] The tubes are vortexed and incubated at 37° C. for 1 hour to allow blood to clot. At the end of incubation, serum is obtained by centrifugation (12,000×g for 5 min.). A 100 μL aliquot of serum is mixed with 400 μL of methanol for protein precipitation.
# COX-2 [2] = target: T2, COX-2 (Homo sapiens, UniProt P35354); experiment: cell-based; details: human whole blood, LPS-induced PGE2, 24 h; read-out: COX-2 (IC50 mM) HWB
# T2 sequence (P35354 18-604): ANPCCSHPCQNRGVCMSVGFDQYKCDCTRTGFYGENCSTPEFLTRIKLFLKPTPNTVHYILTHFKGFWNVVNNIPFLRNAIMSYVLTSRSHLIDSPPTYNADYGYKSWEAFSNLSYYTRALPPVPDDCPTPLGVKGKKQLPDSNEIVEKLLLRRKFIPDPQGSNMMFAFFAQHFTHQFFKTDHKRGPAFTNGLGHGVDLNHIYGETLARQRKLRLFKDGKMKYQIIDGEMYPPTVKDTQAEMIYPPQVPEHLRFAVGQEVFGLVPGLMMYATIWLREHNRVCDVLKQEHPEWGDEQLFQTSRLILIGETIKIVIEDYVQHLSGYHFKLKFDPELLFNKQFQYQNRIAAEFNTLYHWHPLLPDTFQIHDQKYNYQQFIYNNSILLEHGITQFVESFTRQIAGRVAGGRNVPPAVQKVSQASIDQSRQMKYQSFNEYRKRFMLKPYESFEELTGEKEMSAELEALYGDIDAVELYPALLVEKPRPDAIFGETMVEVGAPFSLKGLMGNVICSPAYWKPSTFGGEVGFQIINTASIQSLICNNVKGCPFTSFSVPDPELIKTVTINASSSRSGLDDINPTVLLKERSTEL
# Source text: as §1
# Fresh blood is collected in heparinized tubes by venipuncture from both male and female volunteers. The subjects have no apparent inflammatory conditions and have not taken any NSAIDs for at least 7 days prior to blood collection. Plasma is immediately obtained from a 2mL blood aliquot to use as blank (basal levels of PGE2). The remaining blood is incubated with LPS (100 μg/ml final concentration, Sigma Chem, #L-2630 from E. coli; diluted in 0.1% BSA (Phosphate buffered saline) for 5 minutes at room temperature. Five hundred […] aliquots of blood are incubated with either 2 μL of vehicle (DMSO) or 2 μL of a test compound at final concentrations varying from 10 nM to 30 μM for 24 hours at 37° C. At the end of the incubation, the blood is centrifuged at 12,000×g for 5 minutes to obtain plasma. A 100 μL aliquot of plasma is mixed with 400 μL of methanol for protein precipitation. The supernatant is obtained and is assayed for PGE2 using a radioimmunoassay kit (Amersham, RPA#530) after conversion of PGE2 to its methyl oximate derivative according to the manufacturer's procedure. […]
# COX-1 [3] = target: T1, COX-1; experiment: Assay of COX-1 activity from U937 cell microsomes (PGE2); format: biochemical; parameters: Assay of COX-1 Activity from U937 Cell Microsomes; endogenous in cells; host or cells: U937 cells, 100,000 x g microsomal pellet; details: 15 min preincubation
# Description: U 937 cells are pelleted by centrifugation at 500×g for 5 min and washed once with phosphate-buffered saline and repelleted. Cells are resuspended in homogenization buffer consisting of 0.1 M Tris-HCl, pH 7.4, 10 mM EDTA, […] leupeptin, 2 μg/ml soybean trypsin inhibitor, 2 μg/ml aprotinin and 1 mM phenyl methyl sulfonyl fluoride. The cell suspension is sonicated 4 times for 10 sec and is centrifuged at 10,000×g for 10 min at 4° C. The supernatant is centrifuged at 100,000×g for 1 hr at 4° C. The 100,000×g microsomal pellet is resuspended in 0.1 M Tris-HCl, pH 7.4, 10 mM EDTA to approximately 7 mg protein/ml and stored at -80° C.
# Microsomal preparations are thawed immediately prior to use, subjected to a brief sonication, and then diluted to a protein concentration of 125 μg/ml in 0.1 M Tris-HCl buffer, pH 7.4 containing 10 mM EDTA, 0.5 mM phenol, 1 mM reduced glutathione and 1 μM hematin. Assays are performed in duplicate in a final volume of 250 μl. Initially, 5 μl of DMSO vehicle or drug in DMSO are added to 20 μl of 0.1 M Tris-HCl buffer, pH 7.4 containing 10 mM EDTA in wells of a 96-deepwell polypropylene titre plate. 200 μl of the microsomal preparation are then added and pre-incubated for 15 min at room temperature before addition of 25 μl of […] arachidonic acid in […] Tris-HCl and 10 mM EDTA, pH 7.4. Samples are incubated for 40 min at room temperature and the reaction is stopped by the addition of 25 μl of 1 N HCl. Samples are neutralized with 25 μl of 1 N NaOH prior to quantitation of PGE2 content by radioimmunoassay (Dupont-NEN or Amersham assay kits). Cyclooxygenase activity is defined as the difference between PGE2 levels in samples incubated in the presence of arachidonic acid and ethanol vehicle.
# In the assay, inhibition is determined by measuring the amount of prostaglandin E2 (PGE2) synthesized in the presence of arachidonic acid, cyclooxygenase-1 or cyclooxygenase-2 and a putative inhibitor.
# COX-2 [4] = target: T2, COX-2; experiment: cell-based; details: CHO[hCOX-2] cells, 10 μM AA, 15 min preincubation; read-out: COX-2 (IC50 mM) CHO
# Description: For cyclooxygenase assays, CHO[hCOX-1] cells from suspension cultures and CHO[hCOX-2] cells prepared by trypsinization of adherent cultures are harvested by centrifugation (300×g, 10 min) and washed once in HBSS containing 15 mM HEPES, pH 7.4, and resuspended in HBSS, 15 mM HEPES, pH 7.4, at a cell concentration of 1.5×10^6 cells/ml. Drugs to be tested are dissolved in DMSO to 66.7-fold the highest test drug concentration. […] Cells (0.3×10^6 cells in 200 μl) are preincubated with 3 μl of the test drug or DMSO vehicle for 15 min at 37° C. Working solutions of peroxide-free AA (5.5 μM and 110 μM AA for the CHO [hCOX-1] and CHO [COX-2] assays, respectively) are prepared by a 10-fold dilution of a concentrated AA solution in ethanol into HBSS containing 15 mM HEPES, pH 7.4. Cells are then challenged in the presence or absence of drug with the AA/HBSS solution to yield a final concentration of 0.5 μM AA in the CHO[hCOX-1] assay and a final concentration of 10 μM AA in the CHO[hCOX-2] assay. The reaction is terminated by the addition of 10 μl 1 N HCl followed by neutralization with 20 μl of 0.5 N NaOH. The samples are centrifuged at 300 ×g at 4° C. for 10 min, and an aliquot of the clarified supernatant is appropriately diluted for the determination of PGE2 levels using an enzyme-linked immunoassay for PGE2 (Correlate PGE2 enzyme immunoassay kit, Assay Designs, Inc.). Cyclooxygenase activity in the absence of test compounds is determined as the difference in PGE2 levels of cells challenged with arachidonic acid versus the PGE2 levels in cells mock-challenged with ethanol vehicle. Inhibition of PGE2 synthesis by test compounds is calculated as a percentage of the activity in the presence of drug versus the activity in the positive control samples.
# [5] = human whole blood, clotting-induced TxB2, 1 h, read-out: COX-1 (IC50 mM) HWB
# [6] = U-937 cell microsomes, read-out: COX-1 (IC50 mM) U-937
# T1 sequence (P23219 24-599): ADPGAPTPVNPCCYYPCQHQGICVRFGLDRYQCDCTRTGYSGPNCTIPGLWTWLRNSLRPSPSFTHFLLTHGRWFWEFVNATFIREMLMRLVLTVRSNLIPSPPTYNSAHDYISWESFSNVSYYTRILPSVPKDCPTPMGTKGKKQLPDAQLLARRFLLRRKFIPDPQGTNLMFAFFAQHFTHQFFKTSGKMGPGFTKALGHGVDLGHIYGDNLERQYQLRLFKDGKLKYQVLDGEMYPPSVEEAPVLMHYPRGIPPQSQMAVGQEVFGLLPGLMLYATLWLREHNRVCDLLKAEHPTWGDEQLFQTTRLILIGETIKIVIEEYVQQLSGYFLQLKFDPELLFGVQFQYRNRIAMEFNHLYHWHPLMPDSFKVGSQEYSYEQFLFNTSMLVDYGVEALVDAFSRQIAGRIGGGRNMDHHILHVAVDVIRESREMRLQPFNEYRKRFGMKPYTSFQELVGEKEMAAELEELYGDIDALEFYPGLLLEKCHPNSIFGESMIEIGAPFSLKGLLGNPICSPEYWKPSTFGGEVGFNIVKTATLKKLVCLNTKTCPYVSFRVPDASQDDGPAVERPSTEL
Structure (SMILES),IC50 (COX-1 [1]; [5]) [mM],IC50 (COX-2 [2]) [mM],IC50 (COX-1 [3]; [6]) [mM],IC50 (COX-2 [4]) [nM],IC50 (COX-1 [1]) [mM],"IC50 (COX-1 [3]; COX-1 (IC50 mM) U-937, U-937 cell microsomes) [mM]"
"CCC(O)(CC)[C@@H](C)Oc1ncc(C(F)(F)F)cc1-c1ccc(S(C)(=O)=O)cc1 [Example 21, 2-((2R)-3-Ethyl-3-hydroxy-2-pentyloxy)-3-(4-methylsulfonyl)phenyl-5-trifluoromethylpyridine]",> 0.1,0.0047,> 0.01,200,–,–
"C[C@@H](O)[C@@H](C)Oc1ncc(C(F)(F)F)cc1-c1ccc(S(C)(=O)=O)cc1 [Example 23, 2-((2R,3R)-3-Hydroxy-2-butyloxy)-3-(4-methylsulfonyl)phenyl-5-trifluoromethylpyridine]",–,0.0005,–,50,> 0.1,> 0.01
"C[C@H](CO)Oc1ncc(C(F)(F)F)cc1-c1ccc(S(C)(=O)=O)cc1 [Example 28, 2-((2R)-1-Hydroxy-2-propyloxy)-3-(4-methylsulfonyl)phenyl-5-trifluoromethylpyridine]",> 0.1,0.0112,> 0.01,40,–,–
"CC(C)(O)/C=C\c1ncc(Cl)cc1-c1ccc(S(C)(=O)=O)cc1 [Example 51, 5-Chloro-2-((Z)-3-Hydroxy-3-methyl-1-butenyl)-3-(4-methylsulfonyl)phenylpyridine]",0.01,0.0008,0.001 to 0.003,10,–,–

# From patent publication US6046217A, “2,3,5-trisubstituted pyridines as inhibitors of cyclooxygenase-2” (Merck Frosst Canada & Co., priority 1998, dated 2000)
